# Assay results: ChEMBL document CHEMBL1201862, “PubChem BioAssay data set” (2004)
# Active and inactive are the calls of the source.
# Key:
# [1] = P. falciparum Dd2 growth inhibitors, dose response, SYBR Green, cherry-picked samples (AID 1159567); format: functional, cell-based
# [2] = target: T1, High affinity choline transporter 1 (Homo sapiens, UniProt Q9GZV3); assay: CHT inhibitors, dose response, cell-based, 5-point CRC, membrane potential dye (AID 504840); format: functional
# T1 sequence (Q9GZV3 whole entry): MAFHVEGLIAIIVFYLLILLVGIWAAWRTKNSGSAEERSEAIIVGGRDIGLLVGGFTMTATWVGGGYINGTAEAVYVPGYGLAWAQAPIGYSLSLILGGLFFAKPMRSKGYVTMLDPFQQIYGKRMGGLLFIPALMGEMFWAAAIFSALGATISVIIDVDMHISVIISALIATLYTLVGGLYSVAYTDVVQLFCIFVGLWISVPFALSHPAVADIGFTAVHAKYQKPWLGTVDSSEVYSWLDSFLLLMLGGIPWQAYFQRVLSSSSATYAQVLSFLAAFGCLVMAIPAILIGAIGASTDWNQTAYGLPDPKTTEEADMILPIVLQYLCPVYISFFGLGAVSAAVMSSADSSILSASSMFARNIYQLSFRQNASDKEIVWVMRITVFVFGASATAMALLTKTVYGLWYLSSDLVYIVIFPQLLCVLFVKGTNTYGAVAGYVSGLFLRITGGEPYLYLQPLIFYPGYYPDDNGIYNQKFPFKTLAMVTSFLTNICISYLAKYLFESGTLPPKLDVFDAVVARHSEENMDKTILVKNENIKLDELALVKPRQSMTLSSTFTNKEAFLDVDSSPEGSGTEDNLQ
# [3] = target: T2, Short transient receptor potential channel 4 (Mus musculus, UniProt Q9QUQ5); assay: mouse TRPC4 channel activators, dose response, cell-based, HEK293 TRPC4/mu-opioid, Fluo-4 calcium (AID 434937); format: functional
# T2 sequence (Q9QUQ5 whole entry): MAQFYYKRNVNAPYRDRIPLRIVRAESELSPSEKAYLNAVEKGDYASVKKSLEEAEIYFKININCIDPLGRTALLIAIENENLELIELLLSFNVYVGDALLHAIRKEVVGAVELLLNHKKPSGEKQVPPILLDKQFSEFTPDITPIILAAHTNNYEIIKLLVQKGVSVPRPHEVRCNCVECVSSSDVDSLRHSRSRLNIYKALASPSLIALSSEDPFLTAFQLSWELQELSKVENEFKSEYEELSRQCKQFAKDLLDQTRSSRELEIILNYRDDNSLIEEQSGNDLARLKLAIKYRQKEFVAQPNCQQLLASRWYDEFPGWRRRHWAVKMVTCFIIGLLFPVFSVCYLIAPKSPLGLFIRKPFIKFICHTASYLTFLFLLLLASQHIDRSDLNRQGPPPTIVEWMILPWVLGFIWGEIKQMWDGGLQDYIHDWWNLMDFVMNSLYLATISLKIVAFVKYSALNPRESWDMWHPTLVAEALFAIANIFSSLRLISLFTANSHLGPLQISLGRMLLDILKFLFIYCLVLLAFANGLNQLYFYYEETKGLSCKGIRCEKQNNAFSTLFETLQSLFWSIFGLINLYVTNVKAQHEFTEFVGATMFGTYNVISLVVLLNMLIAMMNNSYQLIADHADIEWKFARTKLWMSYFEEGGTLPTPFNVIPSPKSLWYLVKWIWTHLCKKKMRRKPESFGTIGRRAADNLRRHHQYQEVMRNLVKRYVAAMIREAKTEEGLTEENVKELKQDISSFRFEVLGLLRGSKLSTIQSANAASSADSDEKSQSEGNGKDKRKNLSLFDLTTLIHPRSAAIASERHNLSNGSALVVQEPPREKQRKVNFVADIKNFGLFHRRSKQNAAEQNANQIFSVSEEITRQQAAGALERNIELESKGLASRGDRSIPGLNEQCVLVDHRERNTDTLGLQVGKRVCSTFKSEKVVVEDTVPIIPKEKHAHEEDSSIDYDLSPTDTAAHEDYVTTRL
# cells [4] = format: functional, cell-based
# cells [5] = format: functional, cell-based; remark: listed apart in the source
# [6] = intracellular Trypanosoma cruzi inhibitors in host cells – cell-based, plate reader, cherry-pick samples, set 3, dose response (AID 651818); format: functional;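 note: compounds incubated with infected cells for about four days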
# [7] = microbe, parasite or virus in culture; format: functional; conditions: Mycobacterium tuberculosis
# [8] = inhibitors of firefly luciferase expression or activity, dose response, H4 neuroglioma cells, luminescence (AID 1990); format: functional, cell-based
# [9] = Luminescence Cell-Based Dose Response HTS to Identify Inhibitors of 5'UTR Stem-Loop Driven Prion Protein mRNA Translation in H4 Neuroglioblastoma Cells. [Related pubchem assays: 1827 (Project Summary), 1813 (Primary HTS)]; format: functional
# [10] = inhibitors of SNCA 5'UTR-driven reporter translation, confirmation, H4 neuroglioma cells, luminescence (AID 1988); format: functional, cell-based
# [11] = inhibitors of HIV Env-driven cell fusion, dose response, cherry-pick (AID 652057); format: functional, cell-based
# [12] = inhibitors of clade B AD8 Env fusion, dose response, cell-based, cherry-pick (AID 652062); format: functional;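 note: luciferase signal from cell-cell fusion driven by HIV-1 clade B AD8 Env; potency is for inhibitors of fusion seen as a drop in luminescence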
# BJ [13] = assay: cells; format: functional, cell-based; conditions: Homo sapiens
# BJ [14] = assay: cytotoxicity toward BJ-TERT-LT-ST fibroblasts, dose response, cell-based, RAS-independent, luminescence (AID 1935); format: functional; conditions: Homo sapiens;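 note: BJ fibroblasts immortalized with TERT plus LT and ST oncogenes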
# [15] = cytotoxicity toward DRD oncogenic fibroblasts, dose response, cell-based, non-viral oncogenic, luminescence (AID 1934); format: functional; conditions: Homo sapiens
# BJ [16] = assay: cytotoxicity toward Ras-transformed BJeLR fibroblasts, dose response, cell-based, alamar blue fluorescence, cherrypicked samples (AID 2631); format: functional; conditions: Homo sapiens;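 note: confirmatory dose-response assay in RAS-dependent BJ fibroblasts engineered with TERT, LT and ST, with cytotoxicity read by fluorescence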
# BJ [17] = assay: cytotoxicity toward BJ-TERT fibroblasts, dose response, cell-based, RAS-independent, luminescence (AID 1933); format: functional; conditions: Homo sapiens
# [18] = Shn3 3'UTR reporter inhibitors, dose response, cell-based, Clone20 osteoblasts, firefly luciferase, cherry-picked (AID 624132); format: functional;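 note: firefly luciferase luminescence from reporter carrying the Shn3 3'UTR in osteoblasts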
# [19] = control 3'UTR Renilla luciferase suppression, dose response, counter-screen for Shn3 inhibitor project, cell-based, Clone20-Shn3RL, cherry-picked (AID 624133); format: functional
# [20] = Luminescence Cell-Based Dose Retest to Confirm Inhibitors of Cancer Stem Cells. [Related pubchem assays (depositor defined):AID2717, AID2721]; format: functional; conditions: Homo sapiens
# Streptococcus = assay: Group A Streptococcus viability loss, dose response, counter-screen for streptokinase expression inhibitor project, luminescence, BacTiterGlo (AID 1915); format: functional, organism-based;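 note: potency for reduction of bacterial viability or growth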
# [21] = system: Streptococcus sp. 'group A'; assay: growth inhibition of control SK(-) GAS strain, dose response, counter-screen for streptokinase expression inhibitor project, luminescence, kanamycin, BacTiterGlo, confirmation (AID 1900); format: functional, organism-based
structure (smiles),measurement,setting,value
C[C@H](CO)N1C[C@H](C)[C@H](CN(C)Cc2ccc(Oc3ccccc3)cc2)Oc2c(NC(=O)c3nc4ccccc4s3)cccc2C1=O,AC50,[1],4.87 µM (active)
COc1ccc(-c2nc3ccc(C(=O)NCCCN4CCOCC4)cc3nc2-c2ccc(OC)cc2)cc1,IC50,[2],13.2 µM (active)
CN(C)C(CNC(=O)Cc1c(Cl)cccc1Cl)c1ccccc1 (stereo not given),EC50,[3],376 nM (active)
NC(=O)CC(NC(=O)Cc1ccc(Cl)cc1)c1ccc(NCCc2ccccc2F)c([N+](=O)[O-])c1 (stereo not given),EC50,cells [4],> 29.9 µM (inactive)
same,IC50,cells [5],> 29.9 µM (inactive)
COCC(=O)N1CC2(C1)CN(Cc1cc(F)ccc1F)[C@H](CO)c1[nH]c3cc(OC)ccc3c12,AC50,[1],13.6 µM (active)
CN(CC(=O)Nc1ccccc1Cl)C(=O)CCNC(=O)Nc1ccccc1,EC50,cells [4],> 29.9 µM (inactive)
same,IC50,cells [5],> 29.9 µM (inactive)
C[C@@H]1CN([C@@H](C)CO)C(=O)Cc2cc(NC(=O)C3CC3)ccc2O[C@@H]1CN(C)Cc1ccc(C(=O)Nc2ccccc2N)cc1,AC50,[6],3.26 µM (active)
CC1CN(c2ccc([N+](=O)[O-])c(NCCOc3ccc(Cl)cc3)c2)CC(C)N1 (stereo not given),CC50,[7],11.7 µM (active)
same,EC50,[8],> 120 µM (not active)
same,EC50,[9],13.6 µM (active)
same,EC50,[10],9.59 µM (active)
Clc1ccc(-c2noc(CSc3nnc(-c4ccncc4)n3-c3ccccc3)n2)cc1,AC50,[11],25 µM (active)
same,AC50,[12],4.51 µM (active)
CC(C)c1cc(C(=O)NCCc2cccs2)c(N)s1,EC50,cells [4],> 29.9 µM (inactive)
same,IC50,cells [5],> 29.9 µM (inactive)
O=[N+]([O-])c1cc(C(F)(F)F)ccc1N1CCCNCC1,EC50,[3],841 nM (active)
O=C(Nc1nc2ccc(S(=O)(=O)N3CCCCC3)cc2s1)c1cccnc1,IC50,[2],13.2 µM (active)
O=C1OC(c2ccc([N+](=O)[O-])cc2)=N/C1=C/N1CC2CC(C1)c1cccc(=O)n1C2 (stereo not given),EC50,[3],10600 nM (active)
CN1CCN(C(=O)c2cccn(Cc3c(Cl)cccc3Cl)c2=O)CC1,EC50,[3],668 nM (active)
O=C(CCN1C(=O)/C(=C\c2cccc(Br)c2)SC1=S)NCCCN1CCOCC1,EC50,BJ [13],93.6 µM (inconclusive)
same,EC50,BJ [14],> 150 µM (not active)
same,EC50,[15],4.75 µM (active)
same,EC50,BJ [16],> 66.7 µM (inactive)
same,EC50,BJ [17],1.4 µM (inconclusive)
NN=C(S)NCCc1ccccc1,EC50,cells [4],> 29.9 µM (inactive)
same,IC50,cells [5],> 29.9 µM (inactive)
Cc1cc(C)n2nc(SCc3cccc(S(=O)(=O)N(C)C)c3)nc2n1,AC50,[18],14 µM (active)
same,AC50,[19],8.55 µM (active)
COc1ccccc1/C=C1\SC(=S)N(CCC(=O)NCCCn2ccnc2)C1=O,EC50,BJ [13],> 150 µM (not active)
same,EC50,BJ [14],> 75 µM (inconclusive)
same,EC50,[15],> 150 µM (not active)
same,EC50,BJ [16],> 133 µM (inactive)
same,AC50,[20],6.05 µM (active)
same,EC50,BJ [17],> 150 µM (not active)
COc1ccc(CN(C)C[C@H]2Oc3ccc(NS(=O)(=O)c4ccc(Cl)cc4)cc3CC(=O)N([C@H](C)CO)C[C@H]2C)cc1,AC50,[6],4.65 µM (active)
C[C@H](CO)N1C[C@H](C)[C@H](CN(C)S(=O)(=O)c2ccc(Cl)cc2)Oc2ccc(NC(=O)Nc3ccc(C(F)(F)F)cc3)cc2CC1=O,AC50,[6],3.91 µM (active)
O=C1NC(=S)S/C1=C\c1coc2ccccc2c1=O,IC50,[2],14.5 µM (active)
C[C@@H]1CN([C@H](C)CO)C(=O)Cc2cc(NC(=O)Nc3ccc(C(F)(F)F)cc3)ccc2O[C@H]1CN(C)CC1CCCCC1,AC50,[6],3.27 µM (active)
CN1CCN(S(=O)(=O)c2cccc(C(=O)Nc3ccc(Br)cc3Br)c2)CC1,IC50,[2],12.6 µM (active)
Cc1ccc(S(=O)(=O)Nc2ccc3c(c2)C(=O)N([C@H](C)CO)C[C@H](C)[C@H](CN(C)S(=O)(=O)c2ccccc2)O3)cc1,AC50,[6],13.3 µM (active)
C[C@H](CO)N1C[C@H](C)[C@H](CN(C)Cc2ccc(-c3ccccc3)cc2)Oc2ccc(NC(=O)C3CCCCC3)cc2CC1=O,AC50,[6],2.26 µM (active)
COc1cccc(N2C(N)=NC(N)=NC2(C)C)c1,EC50,Streptococcus,1.42 µM (active)
same,EC50,BJ [13],5.99 µM (inconclusive)
same,EC50,BJ [14],> 150 µM (not active)
same,EC50,[15],12.6 µM (active)
same,EC50,BJ [16],> 133 µM (inactive)
same,EC50,[21],355 nM (active)
same,EC50,BJ [17],> 150 µM (not active)
